# Where a name gives a salt, the structure may show the parent alone.
row,melting point [°C],Structure (SMILES)
1,204 to 206,CN1C2CCC1CC(SCc1ccccn1)C2 (stereo not drawn) (as salt: hydrochloride)
2,201 to 205,CN1C2CCC1CC(Sc1ccccn1)C2 (stereo not drawn) (as salt: hydrochloride) [3-[Endo-(2-Pyridine)thio]-8-methyl-8-azabbicyclo[3.2.1]octane]
3,186.5 to 187.5,"CN1CCCC1CCSc1ccncc1 (stereo not drawn) (as salt: hydrochloride) [A = C, B = N, R1, R2, R4, R5 = H, D = absent, E = —S—, G = —] [2-[2-(4-Pyridine)thioethyl]-1-methylpyrrolidine]"

# Source: US6632823B1, “Substituted pyridine compounds useful as modulators of acetylcholine receptors” (Merck & Co., Inc., priority 1997, dated 2003)
